Measured values as given in US9375496B2, “Halogenated compounds for cancer imaging and treatment and methods for their use” (The University of British Columbia, priority 2013, dated 2016).

Assays:
[1] = biological target: T1, glucocorticoid receptor (GR) (Homo sapiens, UniProt P04150); experiment: GRE-luciferase reporter assay in LNCaP cells cotransfected with full-length human GR; format: cell-based; conditions: 1.9 μM 8d, 10 nM dexamethasone, 48 h, LNCaP cells (FIG. 2C)
T1 construct: expression plasmids for full-length human GR; expressed in transfected cells; host or cells: LNCaP
T1 sequence (P04150 1-777): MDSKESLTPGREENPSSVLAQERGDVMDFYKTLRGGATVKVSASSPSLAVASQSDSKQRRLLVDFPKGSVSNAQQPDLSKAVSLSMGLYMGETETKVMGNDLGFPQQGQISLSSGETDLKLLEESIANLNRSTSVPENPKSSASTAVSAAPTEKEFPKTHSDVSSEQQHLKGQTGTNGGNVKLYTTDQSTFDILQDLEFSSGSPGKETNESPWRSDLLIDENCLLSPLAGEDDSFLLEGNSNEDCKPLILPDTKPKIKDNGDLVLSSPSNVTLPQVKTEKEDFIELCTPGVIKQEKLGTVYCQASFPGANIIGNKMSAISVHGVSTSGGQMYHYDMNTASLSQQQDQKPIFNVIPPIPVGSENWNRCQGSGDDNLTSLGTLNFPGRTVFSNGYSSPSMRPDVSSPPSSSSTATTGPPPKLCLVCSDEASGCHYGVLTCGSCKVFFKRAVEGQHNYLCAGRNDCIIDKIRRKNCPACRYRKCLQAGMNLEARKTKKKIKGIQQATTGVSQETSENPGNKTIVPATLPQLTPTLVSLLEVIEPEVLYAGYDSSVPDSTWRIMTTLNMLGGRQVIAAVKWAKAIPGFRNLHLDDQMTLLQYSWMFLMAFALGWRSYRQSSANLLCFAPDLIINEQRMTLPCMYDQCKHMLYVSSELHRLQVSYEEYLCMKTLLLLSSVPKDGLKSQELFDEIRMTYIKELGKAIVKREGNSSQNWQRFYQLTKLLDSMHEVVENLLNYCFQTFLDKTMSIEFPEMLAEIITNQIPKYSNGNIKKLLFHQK
Procedure: To assess specificity for the AR, parallel experiments were performed in LNCaP cells with endogenous AR and ectopic expression of other closely related human hormone receptors such as the progesterone receptor-beta (PRβ), glucocorticoid receptor (GR) and estrogen receptor-α (ER).

[2] = biological target: T2, recombinant LBD of estrogen receptor (ER) (Homo sapiens, UniProt P03372); experiment: Competitive ligand-binding assay (fluorescent polarization), recombinant ER LBD; conditions: 1 nM fluorescently labeled ligand, 5 h incubation, serial dilution
T2 sequence (P03372 311-547 limits assumed): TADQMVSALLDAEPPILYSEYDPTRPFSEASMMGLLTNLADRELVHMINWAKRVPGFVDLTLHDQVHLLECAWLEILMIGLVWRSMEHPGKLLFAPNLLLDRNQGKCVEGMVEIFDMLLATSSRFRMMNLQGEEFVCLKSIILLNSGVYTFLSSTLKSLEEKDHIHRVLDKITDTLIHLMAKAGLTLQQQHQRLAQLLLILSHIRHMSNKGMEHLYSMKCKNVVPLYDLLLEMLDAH
Procedure: Competitive ligand-binding assays to detect the displacement of fluorescently labeled ligand from recombinant LBDs (ligand binding domains) of AR, PR, GR and estrogen receptor (ER) by R1881, MDV3100, Z (also referred to as EPI-002 or EPI) or 8d (also referred to as iodinated EPI) were performed. FIGS. 14A-14E display competitive ligand-binding curves to indicate whether R1881, Z, antiandrogens (enzalutamide, hydroxyflutamide, bicalutamide) or 8d can displace 1 nM fluorescently labeled cognant ligand from recombinant LBDs of steroid hormone receptors by using fluorescent polarization (mP). Serial dilution was performed for each test compound. Mixtures were incubated for 5 h before measurement of fluorescent polarization.

- GR activity (GRE-luciferase) [1]: not inhibited
- binding to LBD of ER (displacement of fluorescently labeled ligand) [2]: does not bind
SMILES: CC(C)(c1ccc(OC[C@H](O)CO)cc1)c1ccc(OC[C@H](O)CCl)c(I)c1 [Compound 8d, (R)-3-(4-(2-(4-((S)-3-chloro-2-hydroxypropoxy)-3-iodophenyl)propan-2-yl)phenoxy)propane-1,2-diol]
